pEC50: −log10 of the molar value.
target: T1, acetylcholine muscarinic M1 receptor (Homo sapiens, UniProt P11229); assay: muscarinic FLIPR intracellular calcium assay, potentiation of EC20 acetylcholine in CHOnfat/hM1 cells; type: cell-based; settings: inflection point calculated from FLIPR values, 4 min preincubation, then EC20 acetylcholine (3 nM final), read-out: IP Value
T1 construct: expressed in transfected cells; host or cells: CHOnfat cells (CHO), under Geneticin selection; b382 calls them CHOK1/hM1
T1 sequence (P11229 1-460): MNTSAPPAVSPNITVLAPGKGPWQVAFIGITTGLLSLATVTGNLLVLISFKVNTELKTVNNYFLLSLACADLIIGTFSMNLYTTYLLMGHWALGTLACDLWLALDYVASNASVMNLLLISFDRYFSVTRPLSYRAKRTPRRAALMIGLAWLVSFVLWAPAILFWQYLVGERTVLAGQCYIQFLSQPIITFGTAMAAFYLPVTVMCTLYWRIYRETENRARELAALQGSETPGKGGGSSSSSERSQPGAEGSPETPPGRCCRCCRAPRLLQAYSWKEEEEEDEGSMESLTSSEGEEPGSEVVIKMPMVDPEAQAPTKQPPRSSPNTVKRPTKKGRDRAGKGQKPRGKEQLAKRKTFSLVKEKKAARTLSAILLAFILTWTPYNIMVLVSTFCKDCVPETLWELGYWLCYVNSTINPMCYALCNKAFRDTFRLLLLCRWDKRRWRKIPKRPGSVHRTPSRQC
Procedure: The assay studies the effect of one or several concentrations of test compounds on basal or acetylcholine-stimulated Ca^2+ levels using FLIPR.
Compounds are prepared and subjected to a preincubation period of 4 min. Thereafter, a single EC20 concentration of acetylcholine is added to each well (3 nM final). The intracellular Ca^2+ level of each sample is measured and compared to an acetylcholine control to determine any modulatory activity.
Cells: CHOnfat/hM1, hM2, hM3 or hM4 cells are plated 24 hr before the assay at a density of 18,000 cells/well (100 μL) in a 384 well plate. CHOnfat/hM1 and CHOnfat/hM3 Growth Medium: 90% DMEM (Hi Glucose); 10% HI FBS; 2 mM L-glutamine; 0.1 mM NEAA; Pen-Strep; and 1 mg/ml Geneticin, are added. For M2Gqi5CHOnfat and M4Gqi5CHOnfat cells, an additional 600 ug/ml hygromycin is added.
Equipment: 384 well plate, 120 μL addition plate; 96-well Whatman 2 ml Uniplate Incubator, 37° C., 5% CO2; Skatron EMBLA-384 Plate Washer; Multimek Pipetting System; Genesis Freedom 200 System; Mosquito System; Temo Nanolitre Pipetting System; and FLIPR^384 Fluorometric Imaging Plate Reader System are used.
Buffers. Assay Buffer: Hanks Balanced Salt Solution, with 20 mM Hepes, 2.5 mM Probenecid (Sigma P-8761) first dissolved in 1 N NaOH, 1% Bovine Serum Albumin (Sigma A-9647). Dye Loading Buffer: Assay Buffer plus 1% Fetal Bovine Serum and Fluo-4AM/Pluronic Acid Mixture. 2 mM Fluo-4AM ester stock in DMSO (Molecular Probes F-14202) Concentration of 2 μM in buffer for a final concentration of 1 μM in Assay. 20% Pluronic Acid Solution stock, with concentration of 0.04% in Buffer, 0.02% in Assay.
65 μL of 2 mM Fluo-4AM are mixed with 130 μL of 20% Pluronic Acid. The resulting solution and 650 μL FBS is added to the assay buffer for a total volume of 65 mL. Positive Controls: 4-Br-A23187: 10 mM in DMSO; final concentration 10 μM. Acetylcholine: 10 mM in water, working stock at both 20 μM and 30 μM in assay buffer, final concentration of 10 μM. This is used to check the maximum stimulation of the CHOK1/hM1 cells. 20 μM (2×) acetylcholine is added in the preincubation part of the assay, and the 30 μM (3×) stock is added in the second part. (EC20)Acetylcholine: 10 mM in water, working stock of 9 nM (3×), and final concentration in assay is 3 nM. This is used after the preincubation with test compounds. Addition of the EC20 Acetylcholine to each well with a test compound will ascertain any modulator activity. 24 wells contain 3 nM Acetylcholine alone as a control.
Screening Plate: Compounds are titrated in 96-well plates (columns 2-11), 100% DMSO, started at a concentration of 15 mM (150× stock concentration), and 3-fold serial dilutions using Genesis Freedom200 System. Four 96-well plates are combined into a 384-well plate using Mosquito Nanolitre Pipetting System by transferring 1 μl of serial diluted compounds to each well, and 1 mM acetylcholine (100× stock concentration) were added as a control. Using Temo, 49 μl assay buffer is added to each well of the 384-well plate right before assay.
In a 96-well Whatman 2 ml Uniplate, 9 nM Acetylcholine (3×) is pipetted into wells corresponding to the screening compounds, and into control wells. The 30 μM acetylcholine control (3×) is added into control wells, and the 3× agonist plate is transferred into a 384 well plate.
Cells are washed three times with 100 μL of buffer, leaving 30 μL of buffer in each well. Using Multimek, 30 μL of Dye Loading Buffer is added into each well and incubated at 37° C., 5% CO2 for up to one hr.
After 60 min, the cells are washed three times with 100 μL of buffer, leaving 30 μL of buffer in each well. The cell plate, screening plate, and agonist addition plates are placed on the platform in the FLIPR and the door closed. A signal test to check background fluorescence and basal fluorescence signal is performed. Laser intensity is adjusted if necessary. […]

First: COC(C)(C)c1ccc(Cc2cc3c(=O)n([C@H]4CCOC[C@@H]4O)cnc3c3ccccc23)cn1 [Example 20, 3-[(3R,4S)-3-Hydroxytetrahydro-2H-pyran-4-yl]-6-{[6-(1-methoxy-1-methylethyl)pyridine-3-yl]methyl}benzo[h]quinazolin-4(3H)-one]
Second: O=c1c2cc(Cc3ccc(O)nc3)c3ccccc3c2ncn1[C@H]1CCOC[C@@H]1O [Example 28, 6-[(6-Hydroxypyridin-3-yl)methyl]-3-[(3R,4S)-3-hydroxytetrahydro-2H-pyran-4-yl]benzo[h]quinazolin-4(3H)-one]
The pEC50 of the first is 0.22 log units lower: 7.35 for the first, 7.57 for the second. The second is the more potent here.

`O=c1c2cc(Cc3ccc(CO)nc3)c3ccccc3c2ncn1[C@H]1CCOC[C@@H]1O` [Example 21, 6-{[6-(Hydroxymethyl)pyridine-3-yl]methyl}-[(3R,4S)-3-hydroxytetrahydro-2H-pyran-4-yl]benzo[h]quinazolin-4(3H)-one] and `O=c1c2cc(Cc3ccc(CF)nc3)c3ccccc3c2ncn1[C@H]1CCOC[C@@H]1O` [Example 22, 6-{[6-(Fluoromethyl)pyridine-3-yl]methyl}-3-[(3R,4S)-3-hydroxytetrahydro-2H-pyran-4-yl]benzo[h]quinazolin-4(3H)-one] are within 0.2 log units of each other in pEC50: 7.55 for the first, 7.64 for the second.

First: O=c1c2cc(Cc3ccc(C(F)F)nc3)c3ccccc3c2ncn1[C@H]1CCOC[C@@H]1O [Example 23, 6-{[6-(Difluoromethyl)pyridine-3-yl]methyl}-3-[(3R,4S)-3-hydroxytetrahydro-2H-pyran-4-yl]benzo[h]quinazolin-4(3H)-one]
Second: O=c1c2cc(Cc3ccc(OC(F)F)nc3)c3ccccc3c2ncn1[C@H]1CCOC[C@@H]1O [Example 29, 6-{[6-(Difluoromethoxy)pyridine-3-yl]methyl}-3-[(3R,4S)-3-hydroxytetrahydro-2H-pyran-4-yl]benzo[h]quinazolin-4(3H)-one]
The pEC50 of the first is 0.44 log units higher: 7.85 for the first, 7.41 for the second.

First: O=c1c2cc(Cc3cc[n+]([O-])c(Cl)c3)c3ccccc3c2ncn1[C@H]1CCOC[C@@H]1O [Example 24, 6-[(2-Chloro-1-oxidopyridin-4-yl)methyl]-3-[(3R,4S)-3-hydroxytetrahydro-2H-pyran-4-yl]benzo[h]quinazolin-4(3H)-one]
Second: O=c1c2cc(Cc3ccnc(F)c3)c3ccccc3c2ncn1[C@H]1CCOC[C@@H]1O [Example 25, 6-[(2-Fluoropyridin-4-yl)methyl]-3-[(3R,4S)-3-hydroxytetrahydro-2H-pyran-4-yl]benzo[h]quinazolin-4(3H)-one]
The pEC50 of the first is 0.58 log units lower: 7.24 for the first, 7.82 for the second. The second is the more potent here.

Compared with `COc1cc(Cc2cc3c(=O)n([C@H]4CCOC[C@@H]4O)cnc3c3ccccc23)ccn1` [Example 26, 3-[(3R,4S)-3-Hydroxytetrahydro-2H-pyran-4-yl]-6-[(2-methoxypyridin-4-yl)methyl]benzo[h]quinazolin-4(3H)-one], `O=c1c2cc(Cc3ccnc(OC(F)F)c3)c3ccccc3c2ncn1[C@H]1CCOC[C@@H]1O` [Example 30, 6-{[2-(Difluoromethoxy)pyridine-4-yl]methyl}-3-[(3R,4S)-3-hydroxytetrahydro-2H-pyran-4-yl]benzo[h]quinazolin-4(3H)-one] is 0.36 log units lower in pEC50: 7.47 for the first, 7.11 for the second.

`CCOc1ccc(Cc2cc3c(=O)n([C@H]4CCOC[C@@H]4O)cnc3c3ccccc23)cn1` [Example 27, 6-[(6-Ethyoxypyridin-3-yl)methyl]-3-[(3R,4S)-3-hydroxytetrahydro-2H-pyran-4-yl]benzo[h]quinazolin-4(3H)-one] and `CCn1ccc2c(Cc3cc4c(=O)n([C@H]5CCOC[C@@H]5O)cnc4c4ccccc34)ccnc21` [Example 32, 6-[(1-Ethyl-1H-pyrrolo[2,3-b]pyrdin-4-yl)methyl]-3-[(3R,4S)-3-hydroxytetrahydro-2H-pyran-4-yl]benzo[h]quinazolin-4(3H)-one] are within 0.2 log units of each other in pEC50: 7.57 for the first, 7.49 for the second.

Compared with `Cn1cc(Br)c2c(Cc3cc4c(=O)n([C@H]5CCOC[C@@H]5O)cnc4c4ccccc34)ccnc21` [Example 31, 6-[(3-Bromo-1-methyl-1H-pyrrolo[2,3-b]pyridine-4-yl)methyl]-3-[(3R,4S)-3-hydroxytetrahydro-2H-pyran-4-yl]benzo[h]quinazolin-4(3H)-one], `Cc1ccc(-c2ccc(Cc3cc4c(=O)n([C@H]5COCC[C@@H]5O)cnc4c4ccccc34)cn2)cn1` [Example 34, 3-[(3S,4S)-4-Hydroxytetrahydro-2H-pyran-3-yl]-6-[(6′-methyl-2,3-bipyridin-5-yl)methyl]benzo[h]quinazolin-4(3H)-one] is 1.59 log units higher in pEC50: 6.56 for the first, 8.15 for the second.

Compared with `O=c1c2cc(Cc3ccc(Cl)nc3)c3ccccc3c2ncn1[C@H]1CCSC[C@@H]1O` [Example 33, 6-[(6-Chloropyridin-3-yl)methyl]-3-[(3R,4S)-3-hydroxytetrahydro-2H-thiopyran-4-yl]benzo[h]quinazolin-4(3H)-one], `O=c1c2cc(Cc3ccc(Cl)nc3)c3ccccc3c2ncn1C1CCNCC1` [Example 37, 6-[(6-Chloropyridin-3-yl)methyl]-3-piperidin-4-ylbenzo[h]quinazolin-4(3H)-one] is 2.68 log units lower in pEC50: 8.00 for the first, 5.32 for the second.
